Laboratory results from ChEMBL document CHEMBL1142761, “SAR studies of 6-aryl-1,3-dihydrobenzimidazol-2-ones as progesterone receptor antagonists” (Bioorg Med Chem Lett, 2005).

Assays:
Progesterone receptor [1] = biological target: T1, Progesterone receptor (Homo sapiens, UniProt P06401); experiment: Progesterone receptor antagonist activity in human T47D breast carcinoma cell alkaline phosphatase assay
T1 sequence (P06401 whole entry): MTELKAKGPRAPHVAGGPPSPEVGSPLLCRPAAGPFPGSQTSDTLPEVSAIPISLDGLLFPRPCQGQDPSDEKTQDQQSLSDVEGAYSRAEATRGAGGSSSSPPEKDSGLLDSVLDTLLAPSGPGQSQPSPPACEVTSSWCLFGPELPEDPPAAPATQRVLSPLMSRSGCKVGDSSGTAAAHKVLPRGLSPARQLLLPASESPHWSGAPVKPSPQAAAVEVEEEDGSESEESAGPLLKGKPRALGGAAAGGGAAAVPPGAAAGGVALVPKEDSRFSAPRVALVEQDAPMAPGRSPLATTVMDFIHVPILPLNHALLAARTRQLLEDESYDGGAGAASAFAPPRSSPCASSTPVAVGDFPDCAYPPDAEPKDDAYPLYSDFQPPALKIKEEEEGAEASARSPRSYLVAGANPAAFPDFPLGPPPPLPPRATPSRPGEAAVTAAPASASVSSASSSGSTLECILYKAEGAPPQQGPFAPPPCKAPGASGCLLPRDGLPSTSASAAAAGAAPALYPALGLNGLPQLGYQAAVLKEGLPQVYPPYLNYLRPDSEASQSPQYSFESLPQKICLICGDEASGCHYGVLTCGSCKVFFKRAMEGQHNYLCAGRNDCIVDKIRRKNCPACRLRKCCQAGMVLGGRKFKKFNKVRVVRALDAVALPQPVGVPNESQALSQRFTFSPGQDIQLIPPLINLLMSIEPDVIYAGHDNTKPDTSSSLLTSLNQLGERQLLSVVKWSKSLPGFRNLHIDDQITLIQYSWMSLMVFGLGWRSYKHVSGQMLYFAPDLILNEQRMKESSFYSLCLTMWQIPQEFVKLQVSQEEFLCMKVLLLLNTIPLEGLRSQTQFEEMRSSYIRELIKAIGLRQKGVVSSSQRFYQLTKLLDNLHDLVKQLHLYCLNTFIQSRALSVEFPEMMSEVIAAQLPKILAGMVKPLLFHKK

Progesterone receptor [2] = biological target: T1, Progesterone receptor; experiment: Progesterone receptor agonist activity in human T47D breast carcinoma cell alkaline phosphatase assay; type: functional, cell-based

Structure (SMILES)	IC50 (Progesterone receptor [1])	IC50 (Progesterone receptor [2])
N#Cc1cc(F)cc(-c2ccc3[nH]c(=O)n(C4CCCC4)c3c2)c1	5.7 nM	
CC(C)n1c(O)nc2ccc(-c3ccc(F)c(C#N)c3)cc21	60.3 nM	
O=c1[nH]c2ccc(-c3ccc(F)c(F)c3)cc2n1C1CCC1	175 nM	
CC(C)n1c(O)nc2ccc(-c3ccc(C#N)n3C)cc21	4.7 nM	
CCC(CC)n1c(=O)[nH]c2ccc(-c3cc(F)cc(C#N)c3)cc21		29 nM
CCC(CC)n1c(=O)[nH]c2ccc(-c3ccc(F)c(Cl)c3)cc21		426 nM
CC(C)n1c(=O)[nH]c2ccc(-c3ccc(F)c(Cl)c3)cc21	106 nM	
Cn1c(C#N)ccc1-c1ccc2[nH]c(=O)n(C3CCCC3)c2c1	5.6 nM	
CC(C)n1c(O)nc2ccc(-c3ccccc3F)cc21	412 nM	
O=c1[nH]c2ccc(-c3ccc(F)c(F)c3)cc2n1C1CCCC1	96.8 nM	
CC(C)n1c(O)nc2ccc(-c3ccc(F)cc3)cc21	295 nM	
N#Cc1cc(F)cc(-c2ccc3[nH]c(=O)n(-c4cccc(Cl)c4)c3c2)c1	3000 nM	
CC(C)n1c(=O)[nH]c2ccc(-c3cccc(F)c3)cc21	77.9 nM	
N#Cc1cc(F)cc(-c2ccc3[nH]c(=O)n(C4CCCCC4)c3c2)c1	83.6 nM	
CC(C)n1c(O)nc2ccc(-c3ccc(F)c(F)c3)cc21	207 nM	
N#Cc1cc(F)cc(-c2ccc3[nH]c(=O)n(C4CCC4)c3c2)c1	3.3 nM	
CC(C)n1c(=O)[nH]c2ccc(-c3cc(Cl)cc(Cl)c3)cc21	100 nM	
CCC(CC)n1c(=O)[nH]c2ccc(-c3ccc(C#N)n3C)cc21		11.7 nM
Cc1cc(C#N)sc1-c1ccc2nc(O)n(C(C)C)c2c1	24.8 nM	
Oc1nc2ccc(-c3ccc(F)c(Cl)c3)cc2n1C1CCCC1	135 nM	
CC(C)n1c(O)nc2ccc(-c3cc(F)cc(C#N)c3)cc21	29.6 nM	
N#Cc1cc(F)cc(-c2ccc3[nH]c(=O)n(-c4ccccc4)c3c2)c1	137 nM	
Cn1c(C#N)ccc1-c1ccc2[nH]c(=O)n(C3CCC3)c2c1	10.9 nM	
Oc1nc2ccc(-c3ccc(F)c(Cl)c3)cc2n1C1CCC1	106 nM	
